Entries after “also recorded” stand apart in the source; their conditions may differ.
Key:
[1] = McCord and Fridovich assay; cited from earlier work
[2] = system: intestinal epithelial cells and macrophages; settings: cited from earlier work
[3] = system: Lactobacillus plantarum MD007 strain
Method: The Lactobacillus plantarum MD007 strain is grown in MRS containing D-alanine (200 μg/mL) at 37° C.
An overnight culture is used to inoculate fresh medium in order to get an OD600 nm of 0.2, and cells are grown to an OD600 nm of 0.7 and are washed three times D-alanine free MRS medium. The washed bacteria are incubated in medium without D-alanine for 3 h at 37° C. before SOD mimic loading. After alanine starvation, the bacteria are washed three times with Hepes (0.1 M, pH 7.4) to reach a concentration about 10^9 bacteria per 200 μL.
After removal of the culture medium supernatant, bacteria are incubated with Hepes (0.1 M, pH 7.4) only, or with the tested compounds (Mn1 or Mn1C) at the desired concentration in the same buffer for two or twenty-four hours, at 37° C. Mn1C, Mn1 solutions are prepared extemporaneously to prevent degradation and manganese oxidation reactions. After cultures centrifugation and washing with Hepes (0.1 M, pH 7.4), the bacteria are resuspended in Hepes 0.1 M containing 16% glycerol to reach a concentration about 10^9 bacteria per 200 μL. […]
To assess bacteria viability, the overnight culture and the frozen vials are controlled by CFU (colony forming unit) test by diluting the preparation in PBS by serial 1/10 dilution and plating a known volume of the dilutions on the corresponding medium. […] Colonies are then counted by visual observation.

[4] = system: DBNS-induced colitis murine model; settings: administered orally in a carbonate buffer; cited from earlier work

SMILES: Cn1ccnc1CNCCN(Cc1ccccc1O)Cc1nccn1C.[Mn+2] [Mn1]
- kcat for superoxide dismutation [1]: 7.10^6 M^−1·s^−1
- antioxidant and anti-inflammatory effects on cells [2]: antioxidant and anti-inflammatory effects
- cell viability of loaded bacteria (CFU) [3]: does not affect cell viability
- anti-inflammatory activity in DNBS-induced colitis (weight variation, macroscopic scores) [4]: exert an intracellular anti-inflammatory activity in vivo; also recorded: ameliorates DNBS-induced colitis
